In article PMC10384440 (Viruses, 2023):
Where two headings read alike, the source gives them in different places.

Experiments:
Format in all cases: cell-based
Huh-7 cells = test: Cytotoxic effect on Huh-7 cells, cell viability assay with resazurin; conditions: for effect on cell viability at 100 µM: highest concentration evaluated
[1] = as above; conditions: human
DENV-2 New Guinea = test: Antiviral screening: NS1 protein production in DENV-2 infected Huh-7 cells; conditions: for effect on NS1 production vs viral control: DENV-2 infected Huh-7, 24 h, non-cytotoxic concentrations (between 40 and 100 µM); for NS1 production: DENV-2 infected Huh-7, MOI 1, 24 h, compounds at non-cytotoxic concentrations (between 40 and 100 µM), mycophenolic acid 20 µM, relative to viral control
DENV-2 = test: Viral RNA production of DENV-2 in infected Huh-7 cells (RT-qPCR); conditions: 50 µM; DENV-2 infected Huh-7; normalized using GAPDH; vs viral control
[2] = tested on: DENV-2 subgenomic replicon in Huh-7 cells; test: NS5 protein production in Huh-7 DENV-2 replicon cells (ELISA)
[3] = Huh-7 cells, Huh-7 cell line, resazurin, read-out: CC50
[4] = Huh-7, all evaluated concentrations

Row | Structure (SMILES) | CC50 [1, 3] [µM] | effect on NS1 production vs viral control (DENV-2 New Guinea) | NS1 production (DENV-2 New Guinea) | effect on cell viability at the evaluated concentrations (Huh-7 cells; [4]) | other results
1 | O=C(Nc1ccc2c(c1)OCCO2)[C@@H]1CCCN1C(=O)[C@@H]1Cc2ccccc2CN1 [M76] | > 100 | reduction in NS1 production |  |  | effect on cell viability at 100 µM (Huh-7 cells; Huh-7): no effect was observed
2 | CC1(C)CC(NC(=O)C2Cc3c([nH]c4ccccc34)C3c4ccccc4C(=O)N23)CC(C)(C)N1 (stereo not drawn) [M78] | 60.8 | reduction in NS1 production | ~38% |  | effect on cell viability at 100 µM (Huh-7 cells; Huh-7): loss of viability; viability ([1]; Huh-7 cells, Huh-7, at 12.5, 25, and 50 µM, read-out: cellular viability): ~100%; reduction of DENV-2 viral RNA (relative expression, 2^−ΔΔCT) (DENV-2): 1.7 times; selectivity index (SI), CC50/IC50 ([2]; CC50 Huh-7 / IC50 NS5 production): 2.5; IC50 ([2]; Dengue virus, DENV2, Huh-7 DENV-2 replicon, dose-response curve, 24 h): 24.6 µM; reduction of NS5 protein expression ([2]; Huh-7 DENV-2 replicon, 50 µM): 70%; NS5 production ([2]; Huh-7 DENV-2 replicon, 50 µM, 24 h, compared to VC (100%)): ~30%
3 | O=C(NCCc1c[nH]c2ccccc12)C1Cc2c([nH]c3ccccc23)C2c3ccccc3C(=O)N12 (stereo not drawn) [MR25] | 70.6 | reduction in NS1 production | ~45% |  | 
4 | O=C(NCCc1ccccc1F)C1Cc2c([nH]c3ccccc23)C2c3ccccc3C(=O)N12 (stereo not drawn) [MR41] | > 100 | reduction in NS1 production |  | no effect was evidenced | 
5 | Cc1ccc(CNC(=O)C2Cc3c([nH]c4ccccc34)C3c4ccccc4C(=O)N23)cc1 (stereo not drawn) [MR94] | 46.2 | except for treatment with MR94 |  |  | 
6 | Cc1cc(C)cc(NC(=O)C(NC(=O)N2CC3CC(C2)c2cccc(=O)n2C3)C(C)C)c1 (stereo not drawn) [R07] |  | reduction in NS1 production |  |  | effect on cell viability at the evaluated concentrations (Huh-7 cells): did not reduce cell viability; CC50 ([1]; CC50): > 100 µM
7 | O=C(NCc1ccccc1)C1Cc2c([nH]c3ccccc23)C2c3ccccc3C(=O)N12 (stereo not drawn) [R32] | > 100 | reduction in NS1 production |  | did not reduce cell viability | 
8 | O=C(NCCc1ccc(Cl)cc1)C1Cc2c([nH]c3ccccc23)C2c3ccccc3C(=O)N12 (stereo not drawn) [R53] | 30 |  |  | reduced cell viability | 
9 | O=C(NCCc1ccccc1)C1Cc2c([nH]c3ccccc23)C2c3ccccc3C(=O)N12 (stereo not drawn) [R55] | > 100 | reduction in NS1 production |  | did not reduce cell viability | 
10 | COc1c(C)c2c(c(O)c1C/C=C(\C)CCC(=O)O)C(=O)OC2 [mycophenolic acid, Mycophenolic acid, reference compound] |  |  | around 63% |  | 
